From ChEMBL document CHEMBL1687873, “Virtual screening studies on HIV-1 reverse transcriptase inhibitors to design potent leads” (Eur J Med Chem, 2011)

Molecular target: Human immunodeficiency virus type 1 reverse transcriptase (Human immunodeficiency virus 1, UniProt Q72547)
Assay: Inhibition of Human immunodeficiency virus 1 reverse transcriptase

| SMILES | IC50 [µM] |
| --- | --- |
| CCC1=C(Sc2ccccc2)C(COCc2ccc(C)cc2)C(=S)NC1=O (centres undefined) | 0.422 |
| CCOCC1C(=O)NC(=O)C(CC)=C1Sc1cc(Cl)cc(Cl)c1 (centres undefined) | 0.597 |
| CCOCC1C(=O)NC(=O)C(CC)=C1Sc1cc(C)cc(C)c1 (centres undefined) | 0.21 |
| CC1=C(Sc2cccc(C(F)(F)F)c2)C(COCCO)C(=O)NC1=O (centres undefined) | 0.00052 |
| CC1=C(Sc2cc(Cl)cc(Cl)c2)C(COCCO)C(=O)NC1=O (centres undefined) | 0.027 |
| Cc1cc(C)cc(SC2=C(C(C)C)C(=O)NC(=O)C2COCCO)c1 (centres undefined) | 0.054 |
| COc1cccc(SC2=C(C)C(=O)NC(=O)C2COCCO)c1 (centres undefined) | 0.02 |
| CCC1=C(Sc2ccccc2)C(COCc2ccc(Cl)cc2)C(=S)NC1=O (centres undefined) | 0.404 |
| CCC1=C(Sc2ccccc2)C(COCC2CCCCC2)C(=S)NC1=O (centres undefined) | 0.375 |
| CCOCC1C(=S)NC(=O)C(CC)=C1Sc1ccccc1 (centres undefined) | 0.137 |
| CC(C)C1=C(Sc2ccccc2)C(COCCO)C(=O)NC1=O (centres undefined) | 0.031 |
| CC1=C(Sc2ccccc2)C(COCc2ccccc2)C(=O)NC1=O (centres undefined) | 0.111 |
| CC1=C(Sc2cccc(I)c2)C(COCCO)C(=O)NC1=O (centres undefined) | 0.004 |
| CCC1=C(Sc2ccccc2)C(COCCc2ccccc2)C(=S)NC1=O (centres undefined) | 0.473 |
| CC1=C(Sc2cccc(F)c2)C(COCCO)C(=O)NC1=O (centres undefined) | 0.0017 |
| CCOCC1C(=O)NC(=O)C(CC)=C1Sc1ccccc1 (centres undefined) | 0.1 |
| CCC1=C(Sc2cc(C)cc(C)c2)C(COCCO)C(=O)NC1=O (centres undefined) | 0.08 |
| CC1=C(Sc2cccc(O)c2)C(COCCO)C(=O)NC1=O (centres undefined) | 0.0069 |
| CC1=C(Sc2cc(C)cc(C)c2)C(COCCO)C(=O)NC1=O (centres undefined) | 0.024 |
| CC1=C(Sc2cccc([N+](=O)[O-])c2)C(COCCO)C(=O)NC1=O (centres undefined) | 0.0054 |
| CCOCC1C(=S)NC(=O)C(CC)=C1Sc1cc(C)cc(C)c1 (centres undefined) | 0.3 |
| CC1=C(Sc2cccc(Br)c2)C(COCCO)C(=O)NC1=O (centres undefined) | 0.0031 |
| CCC1=C(Sc2ccccc2)C(COC2CCCCC2)C(=S)NC1=O (centres undefined) | 0.24 |
| CC1=C(Sc2cccc(Cl)c2)C(COCCO)C(=O)NC1=O (centres undefined) | 0.0022 |
